Results: paper PMC3333808 (Cell Reports, 2012)
One block for each molecule: values may come before it.

Columns and labels:
[1] = molecular target: T1, SecYEG (Escherichia coli, UniProt P0AG96+P0AG99+P0AGA2); assay type: binding; conditions: 1.65 μM SecYEG, 3.2 mg/ml E. coli polar lipids, 10 μM peptide; reisolated by centrifugation; SDS-PAGE, silver staining; Figure 1D
T1 sequence (P0AGA2 1-443): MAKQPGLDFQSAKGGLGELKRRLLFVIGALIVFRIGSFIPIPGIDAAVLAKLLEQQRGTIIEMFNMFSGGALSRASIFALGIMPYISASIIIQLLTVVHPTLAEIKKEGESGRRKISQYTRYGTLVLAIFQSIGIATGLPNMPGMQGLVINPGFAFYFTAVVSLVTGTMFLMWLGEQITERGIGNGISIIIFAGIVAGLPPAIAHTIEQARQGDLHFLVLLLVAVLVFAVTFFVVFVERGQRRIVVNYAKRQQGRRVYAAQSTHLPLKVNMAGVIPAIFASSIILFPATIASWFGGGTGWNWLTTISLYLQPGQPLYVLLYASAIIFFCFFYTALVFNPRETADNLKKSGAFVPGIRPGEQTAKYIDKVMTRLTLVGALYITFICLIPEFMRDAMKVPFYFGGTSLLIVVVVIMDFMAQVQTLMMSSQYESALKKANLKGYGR
T1 sequence (P0AG96 1-127 partner): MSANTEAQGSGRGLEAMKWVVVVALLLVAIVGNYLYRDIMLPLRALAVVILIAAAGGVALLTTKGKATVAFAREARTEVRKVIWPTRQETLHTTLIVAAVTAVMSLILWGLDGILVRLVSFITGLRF
T1 sequence (P0AG99 1-110 partner): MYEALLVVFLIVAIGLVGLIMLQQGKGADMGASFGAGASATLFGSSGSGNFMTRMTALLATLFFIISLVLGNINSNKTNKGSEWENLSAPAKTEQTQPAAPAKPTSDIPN

[2] = tested on: SecYEG; conditions: membranes containing SecYEG; ref Simon and Blobel, 1992; cited from earlier work
[3] = tested on: SecA; conditions: synthetic LamB signal peptide; ref Gelis et al., 2007; cited from earlier work
[4] = molecular target: T1, SecYEG; assay: Translocation of OmpA into vesicles coreconstituted with SecYEG and peptide; assay type: biochemical; conditions: vesicles reisolated from excess unbound peptide; western blot; n = 8; Figure 1E
[5] = tested on: trypsin; assay: Resistance of peptide in SecYEG 2D crystals to trypsin; assay type: in vitro ADME; conditions: 1:100 (w/w) trypsin, 20 min, room temperature; Coomassie-stained SDS-PAGE; Figure 1F
[6] = molecular target: T1, SecYEG; assay: SecA/ATP-driven translocation of preprotein proOmpA into SecYEG proteoliposomes; assay type: biochemical; conditions: proteoliposomes containing SecYEG; 0.7 μM proOmpA; 25°C, pH 7.5; proteinase K protection, western blot; Figures 1A and 1B
[7] = tested on: SecYEG; conditions: dimer vs monomer; ref Deville et al., 2011; cited from earlier work
[8] = molecular target: T2, SecYEG complex (E. coli, UniProt P0AGA2 1-443; P0AG96 1-127; P0AG99 1-110); assay: co-sedimentation
T2 sequence (looked up) 1: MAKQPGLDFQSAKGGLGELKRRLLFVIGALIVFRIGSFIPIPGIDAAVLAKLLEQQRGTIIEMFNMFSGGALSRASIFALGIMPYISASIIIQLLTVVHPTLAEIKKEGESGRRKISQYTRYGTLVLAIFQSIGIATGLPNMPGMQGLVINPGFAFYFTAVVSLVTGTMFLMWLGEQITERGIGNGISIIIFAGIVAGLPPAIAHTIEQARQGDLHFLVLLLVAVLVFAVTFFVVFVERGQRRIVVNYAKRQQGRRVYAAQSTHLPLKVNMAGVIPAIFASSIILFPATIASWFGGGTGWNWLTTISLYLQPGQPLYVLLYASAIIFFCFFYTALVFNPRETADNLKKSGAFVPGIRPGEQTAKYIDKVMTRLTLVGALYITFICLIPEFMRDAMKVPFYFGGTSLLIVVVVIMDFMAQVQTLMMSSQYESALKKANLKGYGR
T2 sequence (looked up) 2: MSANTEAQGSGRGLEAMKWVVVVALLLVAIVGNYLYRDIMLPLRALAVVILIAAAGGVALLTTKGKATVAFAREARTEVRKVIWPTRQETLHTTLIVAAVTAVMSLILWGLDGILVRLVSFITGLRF
T2 sequence (looked up) 3: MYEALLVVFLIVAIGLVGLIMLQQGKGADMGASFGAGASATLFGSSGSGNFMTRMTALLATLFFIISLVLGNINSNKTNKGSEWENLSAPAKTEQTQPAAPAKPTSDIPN

[9] = molecular target: T2, SecYEG complex; assay: cryo-EM structure

Molecule: MMITLRKLP-(ΔLAVA)-VAAGVMSAQAYA-VDFHGYARSGIGWTG [SSΔ4-β1]
peptide retained following coreconstitution with SecYEG [1]: but not SSΔ4-β1, were retained following coreconstitution with SecYEG

Molecule: MMITLRKLPLAVAVAAGVMSAQAYA [SS]
channel opening [2]: opens channels in membranes containing SecYEG
effect of association with SecA on protein translocation [3]: competitive inhibition of protein translocation
translocation of OmpA after coreconstitution of SecYEG with peptide [4]: permitted the translocation of OmpA
peptide retained following coreconstitution with SecYEG [1]: retained following coreconstitution with SecYEG

Molecule: MMITLRKLPLAVAVAAGVMSAQAYA-VDFHGYARSGIGWTG [SS-β1]
translocation of OmpA after coreconstitution of SecYEG with peptide [4]: permitted the translocation of OmpA
resistance to proteolysis by trypsin in SecYEG 2D crystals [5]: resistance to proteolysis
inhibition of SecA/ATP-driven translocation of proOmpA [6]: quantitatively inhibits
peptide retained following coreconstitution with SecYEG [1]: retained following coreconstitution with SecYEG

Molecule: SecA: ATPase that associates peripherally with the protein-channel complex SecYEG
affinity of SecA for the SecYEG dimer over the monomer [7]: 10 fold

binding result [8]: binds
Molecule: MMITLRKLPLAVAVAAGVMSAQAYA [LamB signal sequence peptide (SS)]

stoichiometry N [9]: 1 substrate per SecYEG dimer
Molecule: MMITLRKLPLAVAVAAGVMSAQAYAVDFHGYARSGIGWTG [LamB signal sequence plus the first β strand peptide (SS-β1)]
